biological target: recombinant human RET protein (Homo sapiens (Human), UniProt P07949); assay: Measurement of inhibitory activity against RET (in vitro); type: biochemical; conditions: ATP 10 μM
Sequence (P07949 29-1114): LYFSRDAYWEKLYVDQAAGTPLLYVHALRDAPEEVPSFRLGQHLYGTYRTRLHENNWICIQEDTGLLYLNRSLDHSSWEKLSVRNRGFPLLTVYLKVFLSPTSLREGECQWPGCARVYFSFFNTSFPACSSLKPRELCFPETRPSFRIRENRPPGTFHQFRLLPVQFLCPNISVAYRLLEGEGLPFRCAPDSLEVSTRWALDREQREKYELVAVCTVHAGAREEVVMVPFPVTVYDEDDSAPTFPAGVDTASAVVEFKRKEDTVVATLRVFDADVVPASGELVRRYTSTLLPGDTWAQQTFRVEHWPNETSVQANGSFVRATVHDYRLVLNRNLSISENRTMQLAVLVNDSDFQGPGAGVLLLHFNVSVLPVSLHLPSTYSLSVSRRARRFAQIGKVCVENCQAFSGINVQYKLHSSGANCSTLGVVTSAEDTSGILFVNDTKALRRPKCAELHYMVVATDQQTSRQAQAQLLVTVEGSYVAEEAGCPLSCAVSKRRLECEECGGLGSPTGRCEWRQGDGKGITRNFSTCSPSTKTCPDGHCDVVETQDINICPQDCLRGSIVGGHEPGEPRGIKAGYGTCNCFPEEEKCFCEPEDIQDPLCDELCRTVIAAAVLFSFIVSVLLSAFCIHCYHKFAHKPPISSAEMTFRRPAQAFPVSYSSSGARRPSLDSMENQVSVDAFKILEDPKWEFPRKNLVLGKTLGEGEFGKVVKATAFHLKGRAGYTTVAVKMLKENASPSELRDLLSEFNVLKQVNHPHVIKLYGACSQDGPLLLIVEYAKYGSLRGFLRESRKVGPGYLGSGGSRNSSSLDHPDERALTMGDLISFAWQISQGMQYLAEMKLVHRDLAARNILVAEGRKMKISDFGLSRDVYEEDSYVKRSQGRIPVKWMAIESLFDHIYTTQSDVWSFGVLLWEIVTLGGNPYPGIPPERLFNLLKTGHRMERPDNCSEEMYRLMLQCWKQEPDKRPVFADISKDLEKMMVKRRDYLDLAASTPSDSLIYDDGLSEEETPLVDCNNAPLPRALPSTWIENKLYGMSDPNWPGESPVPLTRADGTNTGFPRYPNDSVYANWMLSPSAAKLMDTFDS

Row | Structure (SMILES) | IC50
1 | COCc1ccc(NC(=O)c2nn(-c3ccccc3)c3ncnc(N)c23)cc1 [Comound 5 of Comparative Examples, 4-amino-N-(4-(methoxymethyl)phenyl)-1-phenyl-1H-pyrazolo[3,4-d]pyrimidine-3-carboxamide] | > 5 µM

test system: TT cells (a human thyroid cancer cell line with RET activating mutation (C634W)); assay: Cell growth inhibitory effect (1), TT cells; type: cell-based; conditions: 168 h, read-out: TT Cell GI50 (nM)
Description: An in vitro cytotoxicity test was performed on TT cells (a human thyroid cancer cell line with RET activating mutation (C634W)).
(§1) After shaking, each culture was allowed to stand at room temperature for 15 minutes, and the chemiluminescence was measured with a luminometer to use it as an index of the number of viable cells.
C: The absorbance of the well to which a test compound was not added. Day 1: The day on which a test compound was added. Day 8: The day on which evaluation was performed.

Row | Structure (SMILES) | GI50
2 | COCc1ccc(NC(=O)c2c(C#CCN3CCOCC3)n(C3(C)CC3)c3ncnc(N)c23)cc1 [Example 85, 4-amino-N-[4-(methoxymethyl)phenyl]-7-(1-methylcyclopropyl)-6-(3-morpholinoprop-1-yn-1-yl)-7H-pyrrolo[2,3-d]pyrimidine-5-carboxamide] | 10 nM

test system: not given; assay: not given; conditions: mouse, microsomes, 0.5 h

Row | Structure (SMILES) | Remaining (%)
3 | COCc1ccc(NC(=O)c2c(C#CCN3CCOCC3)n(C3(C)CC3)c3ncnc(N)c23)cc1 [Example 85, 4-amino-N-[4-(methoxymethyl)phenyl]-7-(1-methylcyclopropyl)-6-(3-morpholinoprop-1-yn-1-yl)-7H-pyrrolo[2,3-d]pyrimidine-5-carboxamide] | 79%
4 | C/C=C/c1ccc(NC(=O)c2cn(C3(C)CC3)c3ncnc(N)c23)cc1 [Example 107, (E)-4-amino-7-(1-methylcyclopropyl)-N-(4-(prop-1-en-1-yl)phenyl)-7H-pyrrolo[2,3-d]pyrimidine-5-carboxamide] | 63%
5 | C#Cc1ccc(NC(=O)c2cn(C3(C)CC3)c3ncnc(N)c23)cc1 [Example 108, 4-amino-N-(4-ethynylphenyl)-7-(1-methylcyclopropyl)-7H-pyrrolo[2,3-d]pyrimidine-5-carboxamide] | 60%

same assay, conditions: mouse, microsomes, 0.5 h, 1 μM

Row | Structure (SMILES) | Remaining (%)
6 | C/C=C/c1ccc(NC(=O)c2c(OCC)n(C3(C)CC3)c3ncnc(N)c23)cc1 [Example 117, (E)-4-amino-6-ethoxy-7-(1-methylcyclopropyl)-N-(4-(prop-1-en-1-yl)phenyl)-7H-pyrrolo[2,3-d]pyrimidine-5-carboxamide] | 53%

test system: TT cells (human thyroid cancer cell line with RET activating mutation); assay: In vivo antitumor effect, mice subcutaneously implanted with TT cells; set-up: species or system BALB/cA Jcl-nu/nu male mice; conditions: 100 mg/kg/day oral, 14 days, day 15
Description: Human thyroid cancer cell lines (TT) were subcutaneously implanted into the right frank of 6- to 7-week-old BALB/cA Jcl-nu/nu male mice. After about 2 to 3 weeks from the cell implantation, the length (nm) and the width (mm) of tumors found in mouse bodies were measured. […] The day on which the mice were divided into groups was determined to be the “grouping day” (day 0 or 1).
A control group was administered a solvent (0.5% HPMC/0.1N HCl).
To determine the index of the antitumor effect, TV of each drug-administrated group was measured on day 15, and the tumor volume on day 15 relative to the tumor volume on the grouping day (day 0 or 1) (relative tumor volume: RTV) and T/C (%) were calculated from the following equations, and the antitumor effect was evaluated. […] TV(mm^3)=(length×width^2)/2 RTV=(TV on day 15)/(TV on day 0 or day 1) T/C(%)=(the mean RTV of a test compound treatment group)/(the mean RTV of the control group)×100

Row | Structure (SMILES) | T/C (%) | TV (mm^3) Day 15 Mean ± SE
7 | COCc1ccc(NC(=O)c2c(C#CCN3CCOCC3)n(C3(C)CC3)c3ncnc(N)c23)cc1 [Example 85, 4-amino-N-[4-(methoxymethyl)phenyl]-7-(1-methylcyclopropyl)-6-(3-morpholinoprop-1-yn-1-yl)-7H-pyrrolo[2,3-d]pyrimidine-5-carboxamide] | 23% | 139.42 ± 10.17 mm^3

same assay, conditions: 100 mg/kg/day oral, 14 days, day 15 relative to day 0

Row | Structure (SMILES) | RTV Day 15 Mean ± SE
8 | COCc1ccc(NC(=O)c2c(C#CCN3CCOCC3)n(C3(C)CC3)c3ncnc(N)c23)cc1 [Example 85, 4-amino-N-[4-(methoxymethyl)phenyl]-7-(1-methylcyclopropyl)-6-(3-morpholinoprop-1-yn-1-yl)-7H-pyrrolo[2,3-d]pyrimidine-5-carboxamide] | 0.87 ± 0.13

test system: not listed separately; assay: Evaluation of stability in liver microsome; conditions: mouse liver microsome 0.25 mg/mL, 1 μM test compound, 37° C. for 30 minutes

Row | Structure (SMILES) | Remaining (%)
9 | COCc1ccc(NC(=O)c2c(C#CC3CCN(C)CC3)n(C3(C)CC3)c3ncnc(N)c23)cc1 [Example 183, 4-amino-N-(4-(methoxymethyl)phenyl)-7-(1-methylcyclopropyl)-6-((1-methylpiperidin-4-yl)ethynyl)-7H-pyrrolo[2,3-d]pyrimidine-5-carboxamide] | 77%
10 | COCc1ccc(NC(=O)c2c(C#Cc3c(C)noc3C)n(C3(C)CC3)c3ncnc(N)c23)cc1 [Example 184, 4-amino-6-((3,5-dimethylisoxazol-4-yl)ethynyl)-N-(4-(methoxymethyl)phenyl)-7-(1-methylcyclopropyl)-7H-pyrrolo[2,3-d]pyrimidine-5-carboxamide] | 58%
11 | COCc1ccc(NC(=O)c2c(C#CC3(O)CCOCC3)n(C3(C)CC3)c3ncnc(N)c23)cc1 [Example 185, 4-amino-6-((4-hydroxytetrahydro-2H-pyran4-yl)ethynyl)-N-(4-(methoxymethyl)phenyl)-7-(1-methylcyclopropyl)-7H-pyrrolo[2,3-d]pyrimidine-5-carboxamide] | 80%
12 | COCc1ccc(NC(=O)c2c(C#CCCN3CCOCC3)n(C3(C)CC3)c3ncnc(N)c23)cc1 [Example 187, 4-amino-N-(4-(methoxymethyl)phenyl)-7-(1-methylcyclopropyl)-6-(4-morpholinobut-1-yn-1-yl)-7H-pyrrolo[2,3-d]pyrimidine-5-carboxamide] | 68%
13 | COCc1ccc(NC(=O)c2c(C#CCC(C)O)n(C3(C)CC3)c3ncnc(N)c23)cc1 (stereo not drawn) [Example 188, 4-amino-6-(4-hydroxypent-1-yn-1-yl)-N-(4-(methoxymethyl)phenyl)-7-(1-methylcyclopropyl)-7H-pyrrolo[2,3-d]pyrimidine-5-carboxamide] | 68%
14 | COCc1ccc(NC(=O)c2c(-c3ccc(F)nc3)n(C3(C)CC3)c3ncnc(N)c23)cc1 [Example 190, 4-amino-6-(6-fluoropyridin-3-yl)-N-(4-(methoxymethyl)phenyl)-7-(1-methylcyclopropyl)-7H-pyrrolo[2,3-d]pyrimidine-5-carboxamide] | 58%
15 | COCc1ccc(NC(=O)c2c(C#Cc3cnc[nH]3)n(C3(C)CC3)c3ncnc(N)c23)cc1 [Example 191, 6-((1H-imidazol-5-yl)ethynyl)-4-amino-N-(4-(methoxymethyl)phenyl)-7-(1-methylcyclopropyl)-7H-pyrrolo[2,3-d]pyrimidine-5-carboxamide] | 53%
16 | COCc1ccc(NC(=O)c2c(C#Cc3ccc(OC)nc3)n(C3(C)CC3)c3ncnc(N)c23)cc1 [Example 192, 4-amino-N-(4-(methoxymethyl)phenyl)-6-((6-methoxypyridin-3-yl)ethynyl)-7-(1-methylcyclopropyl)-7H-pyrrolo[2,3-d]pyrimidine-5-carboxamide] | 79%
17 | COCc1ccc(NC(=O)c2c(C#Cc3cncs3)n(C3(C)CC3)c3ncnc(N)c23)cc1 [Example 193, 4-amino-N-[4-(methoxymethyl)phenyl]-7-(1-methylcyclopropyl)-6-(thiazol-5-ylethynyl)-7H-pyrrolo[2,3-d]pyrimidine-5-carboxamide] | 51%
18 | COCc1ccc(NC(=O)c2c(-c3cncnc3)n(C3(C)CC3)c3ncnc(N)c23)cc1 [Example 194, 4-amino-N-(4-(methoxymethyl)phenyl)-7-(1-methylcyclopropyl)-6-(pyrimidin-5-yl)-7H-pyrrolo[2,3-d]pyrimidine-5-carboxamide] | 67%
19 | COCc1ccc(NC(=O)c2c(C#Cc3cncc(C#N)c3)n(C3(C)CC3)c3ncnc(N)c23)cc1 [Example 195, 4-amino-6-((5-cyanopyridin-3-yl)ethynyl)-N-(4-(methoxymethyl)phenyl)-7-(1-methylcyclopropyl)-7H-pyrrolo[2,3-d]pyrimidine-5-carboxamide] | 70%
20 | COCc1ccc(NC(=O)c2c(C#Cc3cncnc3)n(C3(C)CC3)c3ncnc(N)c23)cc1 [Example 196, 4-amino-N-(4-(methoxymethyl)phenyl)-7-(1-methylcyclopropyl)-6-(pyrimidin-5-ylethynyl)-7H-pyrrolo[2,3-d]pyrimidine-5-carboxamide] | 53%
21 | COCCN(C)CC#Cc1c(C(=O)Nc2ccc(COC)cc2)c2c(N)ncnc2n1C1(C)CC1 [Example 197, 4-amino-6-(3-((2-methoxyethyl)(methyl)amino)prob-1-yn-1-yl)-N-(4-(methoxymethyl)phenyl)-7-(1-methylcyclopropyl)-7H-pyrrolo[2,3-d]pyrimidine-5-carboxamide] | 52%
22 | COCc1ccc(NC(=O)c2c(C#CCN(C)C)n(C3(C)CC3)c3ncnc(N)c23)cc1 [Example 198, 4-amino-6-(3-(dimethylamino)prop-1-yn-1-yl)-N-(4-(methoxymethyl)phenyl)-7-(1-methylcyclopropyl)-7H-pyrrolo[2,3-d]pyrimidine-5-carboxamide] | 57%
23 | COCc1ccc(NC(=O)c2c(C#CCC3CCCCC3)n(C3(C)CC3)c3ncnc(N)c23)cc1 [Example 199, 4-amino-6-(3-cyclohexylprop-1-yn-1-yl)-N-(4-(methoxymethyl)phenyl)-7-(1-methylcyclopropyl)-7H-pyrrolo[2,3-d]pyrimidine-5-carboxamide] | 80%
24 | COCc1ccc(NC(=O)c2c(C3=CCOCC3)n(C3(C)CC3)c3ncnc(N)c23)cc1 [Example 203, 4-amino-6-(3,6-dihydro-2H-pyran-4-yl)-N-(4-(methoxymethyl)phenyl)-7-(1-methylcyclopropyl)-7H-pyrrolo[2,3-d]pyrimidine-5-carboxamide] | 68%
25 | COCc1ccc(NC(=O)c2c(C(C)O)n(C3(C)CC3)c3ncnc(N)c23)cc1 (stereo not drawn) [Example 204, 4-amino-6-(1-hydroxyethyl)-N-(4-(methoxymethyl)phenyl)-7-(1-methylcyclopropyl)-7H-pyrrolo[2,3-d]pyrimidine-5-carboxamide] | 83%
26 | COCc1ccc(NC(=O)c2c(C#CC3CCOCC3)n(C3(C)CC3)c3ncnc(N)c23)cc1F [Example 205, 4-amino-N-(3-fluoro-4-(methoxymethyl)phenyl)-7-(1-methylcyclopropyl)-6-((tetrahydro-2H-pyran-4-yl)ethynyl)-7H-pyrrolo[2,3-d]pyrimidine-5-carboxamide] | 58%
27 | COCc1ccc(NC(=O)c2c(C#CCN3CCOCC3)n(C3(C)CC3)c3ncnc(N)c23)cc1F [Example 206, 4-amino-N-(3-fluoro-4-(methoxymethyl)phenyl)-7-(1-methylcyclopropyl)-6-(3-morpholinoprop-1-yn-1-yl)-7H-pyrrolo[2,3-d]pyrimidine-5-carboxamide] | 77%
28 | CCc1c(C(=O)Nc2ccc(COC)cc2)c2c(N)ncnc2n1C1(C)CC1 [Example 207, 4-amino-6-ethyl-N-(4-(methoxymethyl)phenyl)-7-(1-methylcyclopropyl)-7H-pyrrolo[2,3-d]pyrimidine-5-carboxamide] | 72%

test system: LC-2/ad cells (a human lung adenocarcinoma cell line with CCDC6-RET fusion gene); assay: Cell growth inhibitory effect (2), LC-2/ad cells; type: cell-based; conditions: 168 h, read-out: LC-2/ad Cell GI50
Description: An in vitro cytotoxicity test was performed on LC-2/ad cells (a human lung adenocarcinoma cell line with CCDC6-RET fusion gene).
as §1

Row | Structure (SMILES) | GI50
29 | COCc1ccc(NC(=O)c2c(C#CCN3CCOCC3)n(C3(C)CC3)c3ncnc(N)c23)cc1 [Example 85, 4-amino-N-[4-(methoxymethyl)phenyl]-7-(1-methylcyclopropyl)-6-(3-morpholinoprop-1-yn-1-yl)-7H-pyrrolo[2,3-d]pyrimidine-5-carboxamide] | 0.0177 µM

Source: patent publication US10155768B2, “Fused pyrimidine compound or salt thereof” (TAIHO PHARMACEUTICAL CO., LTD., priority 2016, dated 2018)
